Laboratory results published in patent US4195023A, “2-(2-Furoyl)1,2-benzisothiazole-3-one, 2-(2-furoyl) saccharin, and 2-(2-thenoyl) saccharin” (Merck & Co., Inc., priority 1975, dated 1980).

Key:
[1] = system: papain; details: cited from earlier work
[2] = system: Papain induced emphysema; details: hamster; cited from earlier work
[3] = system: trypsin, chymotrypsin, plasmin, kallikrein, elastase, thrombin and a protease from Aspergillus oryzae; details: cited from earlier work
[4] = system: elastase-induced emphysema (Porcine pancreatic elastase); assay: Elastase-Induced Emphysema in the Hamster; format: in vivo, Male Syrian hamsters; details: for Lm, Mean ± S.E.: *P<0.05 versus elastase 0.1 mg i.tr. group
[5] = system: papain-induced emphysema; assay: Papain-Induced Emphysema in the Hamster; format: in vivo, Male Syrian hamsters; details: for I.S.A.3 (internal surface area), Mean ± S.E. / Lm (mean linear intercept), Mean ± S.E.: *p<0.05 versus saline i.tr. + papain aerosol group
Source text: In view of the test results, infra, the compounds of formula I, supra, are inhibitors of elastase and may be used to treat emphysema and other disorders which may be treated with elastase inhibitors, such as rheumatoid arthritis. The test procedure described below for papain-induced emphysema in the hamster is representative of recognized procedures used to experimentally papain-induce emphysema in the hamster such as that of Goldring et al. "Sequential Anatomic Changes in Lungs Exposed to Papain and other Proteolytic Enzymes" pages 389-410 in Pulmonary Emphysema and Proteolysis, edited by C. Mittman, Academic Press, Inc., New York and London, 1972.
Male Syrian hamsters in the weight range of 70-90 g were used. Food and water was allowed ad libitum except in the exposure chamber. The animals were anesthetized with pentobarbital 60 mg/kg intraperitoneally (i.p.) and saline (control) or 2-(2-furoyl)-saccharin suspended in distilled water in doses of 0.3, 1 and 3 mg was given intratracheally (i.tr.) through a slightly bent capillary tube (Kimax-51 No. 34500). […] Approximately 40 minutes later the animals were exposed to an aerosol of distilled water or 3% papain (Matheson, Coleman and Bell) for 3 hours. The aerosol was generated by two nebulizers (De Vilbiss 40) attached to the sides of a 28 liter chamber and operated at a pressure of 10 lbs. p.s.i. During this period 80-100 ml of solution was used.
Seven days after the exposure the animals were sacrificed with an overdose of pentobarbital, exanguinated by cutting the renal arteries and the lungs were excised, weighed and placed in a cylindrical 0.45 liter plethysmograph with the trachea tied to a conducting tube. The latter was connected to a respiratory pump (E & M Inst. Co., Houston, Tex.) modified to provide static inflation and deflation of the lungs. Transpulmonary pressure was recorded on the abcissa of a Honeywell 530 x-y recorder through a Grass volumetric pressure transducer (PT 5A). Changes in lung volume were recorded on the ordinate of a spirometer (10 ml capacity) connected to a Harvard linear motion transducer.
The specific static compliance (SSC) of the lungs was determined as follows: the lungs were inflated to a pressure of 20 cm H2 O and then deflated at 30 second intervals by steps of 5 cm H2 O pressure. The procedure was repeated and the second pressure volume defation curve was used for analysis. SSC was then calculated according to the formula ΔV/ΔP×W, where ΔV represents change in lung volume (ml) following change in pressure (ΔP) from 5 to 0 cm H2 O, and W is the lung wet weight (g).
Subsequently, the lungs were degassed and fixed intratracheally with formalin at a constant pressure of 15 cm H2 O for at least 48 hours and then dehydrated at the same pressure. All lungs were cleared in toluene, embedded under vacuum in parafin and each pair was blocked together. Two laterosagittal sections (6μ) of each lung were made and stained with hematoxylin and eosin and the extent of emphysematous lesions was quantitatively estimated by measuring the average intra-alveolar distance (mean linear intercept of Lm). A total of 20 random histologic fields were evaluated both vertically and horizontally and subsequently corrected for distortion and shrinkage. The internal surface area of the lungs measured at post-fixation lung volume (V) and corrected to an arbitrary total lung volume of 3 ml (ISA3) was calculated according to the formula 4V/Lm. In all studies statistical evaluation consisted of analysis of variance and significance was taken at P≤0.05.

[6] = Elastase 0.1 mg + 0.03 mg i.tr.
[7] = Group C: 0.3 mg i.tr. + papain aerosol
[8] = Group D: 1 gm i.tr. (so in the source) + papain aerosol
[9] = Group E: 3 mg i.tr. + papain aerosol

Compound: human α1-antitrypsin (HAAT): a glycoprotein in human serum
- inhibition of papain [1]: not inhibited
- Papain induced emphysema inhibited [2]: inhibited
- inhibitory spectrum [3]: wide inhibitory spectrum covering trypsin, chymotrypsin, plasmin, kallikrein, elastase, thrombin and a protease from Aspergillus oryzae

Compound: O=C(c1ccco1)N1C(=O)c2ccccc2S1(=O)=O [2-(2-Furoyl)-saccharin, 2-(2-Furoyl)saccharin]
- development of pulmonary emphysematous lesions ([4]; 1 mg added to elastase prior to i.tr. administration): completely prevented the development of pulmonary emphysematous lesions
- protective effect (histological changes) ([4]; 0.03 to 0.3 mg added to elastase prior to i.tr. administration): partial but statistically significant protective effect
- % inhibition of ΔLm [4, 6]: 48%
- ΔLm [4, 6]: +17 μ
- Lm, Mean ± S.E. [4, 6]: 96.61 ± 3.22 μ
- % inhibition of ΔLm ([4]; Elastase 0.1 mg + 0.1 mg i.tr.): 54%
- ΔLm ([4]; Elastase 0.1 mg + 0.1 mg i.tr.): +15 μ
- Lm, Mean ± S.E. ([4]; Elastase 0.1 mg + 0.1 mg i.tr.): 94.34 ± 4.31 μ
- % inhibition of ΔLm ([4]; Elastase 0.1 mg + 0.3 mg i.tr.): 51%
- ΔLm ([4]; Elastase 0.1 mg + 0.3 mg i.tr.): +16 μ
- Lm, Mean ± S.E. ([4]; Elastase 0.1 mg + 0.3 mg i.tr.): 96.27 ± 2.36 μ
- % inhibition of ΔLm ([4]; Elastase 0.1 mg + 1.0 mg i.tr.): 100%
- ΔLm ([4]; Elastase 0.1 mg + 1.0 mg i.tr.): -2 μ
- Lm, Mean ± S.E. ([4]; Elastase 0.1 mg + 1.0 mg i.tr.): 77.68 ± 2.54 μ
- % Inhibition (S.S.C.) ([5]; 0.3 mg i.tr. + papain aerosol): 34%
- S.S.C. (specific static compliance) ΔV/ΔP × W, Mean ± S.E. ([5]; 0.3 mg i.tr. + papain aerosol): 0.529 ± 0.041
- % Inhibition (S.S.C.) ([5]; 3 mg i.tr. + papain aerosol): 74%
- S.S.C. (specific static compliance) ΔV/ΔP × W, Mean ± S.E. ([5]; 3 mg i.tr. + papain aerosol, *P<0.05 versus saline i.tr. + papain aerosol group): 0.360 ± 0.017
- Inhibition, dose relation and significance ([5]; 0.3, 1 and 3 mg i.tr., significance at P≤0.05): dose related but significant only for doses of 1 and 3 mg
- % Inhibition (S.S.C.) ([5]; 1 gm i.tr. (so in the source) + papain aerosol): 48%
- S.S.C. (specific static compliance) ΔV/ΔP × W, Mean ± S.E. ([5]; 1 gm i.tr. (so in the source) + papain aerosol, *P<0.05 versus saline i.tr. + papain aerosol group): 0.471 ± 0.039
- % inhibition (I.S.A.3) [5, 7]: 58%
- % inhibition (Lm) [5, 7]: 69%
- I.S.A.3 (internal surface area), Mean ± S.E. [5, 7]: 400 + 38 cm^2
- Lm (mean linear intercept), Mean ± S.E. [5, 7]: 88.44 ± 2.54 μ
- % inhibition (I.S.A.3) [5, 8]: 42%
- % inhibition (Lm) [5, 8]: 59%
- I.S.A.3 (internal surface area), Mean ± S.E. [5, 8]: 1344 ± 34 cm^2
- Lm (mean linear intercept), Mean ± S.E. [5, 8]: 90.87 ± 2.40 μ
- % inhibition (I.S.A.3) [5, 9]: 65%
- % inhibition (Lm) [5, 9]: 84%
- I.S.A.3 (internal surface area), Mean ± S.E. [5, 9]: 1445 ± 54 cm^2
- Lm (mean linear intercept), Mean ± S.E. [5, 9]: 84.39 ± 2.68 μ
- development of the emphysematous lesions ([5]; i.tr., evaluated by both physiologic and histologic methods): prevented the development of the emphysematous lestions
